In publication PMC5986872, “Schaftoside Interacts With NlCDK1 Protein: A Mechanism of Rice Resistance to Brown Planthopper, Nilaparvata lugens” (Frontiers in Plant Science, 2018):

Target: T1, NlCDK1 (Nilaparvata lugens, UniProt A0A1W5R2Z8)
T1 construct: CDS cloned BamHI/HindIII in pET32a
Assay: intrinsic fluorescence quenching titration, double-log plot
Format: binding
Details: PBS; pH 7.4; 0.24 × 10^-6 mol/L protein; excitation 281 nm, emission 335 nm

T1 sequence (A0A1W5R2Z8 1-302): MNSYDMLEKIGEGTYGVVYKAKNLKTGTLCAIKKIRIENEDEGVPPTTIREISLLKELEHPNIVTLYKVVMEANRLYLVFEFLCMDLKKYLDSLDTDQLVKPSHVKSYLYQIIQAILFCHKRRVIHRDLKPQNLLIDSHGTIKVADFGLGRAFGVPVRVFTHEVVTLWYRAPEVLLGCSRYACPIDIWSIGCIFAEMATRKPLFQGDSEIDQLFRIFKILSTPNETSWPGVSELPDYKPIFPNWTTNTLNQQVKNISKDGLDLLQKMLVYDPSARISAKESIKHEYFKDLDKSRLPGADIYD

O=c1cc(-c2ccc(O)cc2)oc2c([C@@H]3OC[C@H](O)[C@H](O)[C@H]3O)c(O)c([C@@H]3O[C@H](CO)[C@@H](O)[C@H](O)[C@H]3O)c(O)c12 [schaftoside, 6-C-beta-D-Glucosyl-8-C-alpha-L-arabinosylapigenin]
KA (apparent association constant): 6.436 × 10^3
